# Results reported in patent US10072006B2 (MUTABILIS, priority 2015, dated 2018).
# Where a name gives a salt, the structure may show the parent alone.
# How the values were obtained:
# TEM-1 = biological target: T1, TEM-1 (Escherichia coli, UniProt P62593); assay: β-lactamase inhibitory activity, determination of IC50 (nitrocefin hydrolysis); type: biochemical; conditions: class (A), 30 min pre-incubation
# T1 construct: made in house; host or cells: E. coli
# [1] = tested on: P. aeruginosa UFR47 (VIM-1); assay: MIC of compounds and synergy with ceftazidime (broth microdilution); type: cell-based; conditions: strain UFR47 (P. aeruginosa)
# Protocol: (§1) Briefly, compounds alone according to the invention were prepared in DMSO and spotted (2 μL each) on sterile polystyrene plates (Corning, 3788). […] Microplates were incubated for 16-20 h at 35° C. in ambient air. The MIC of the compounds was defined as the lowest concentration of said compounds that prevented bacterial growth as read by visual inspection.
# [2] = tested on: E. coli UFR52 (TEM-1, SHV-12, IMP-8); assay: as above; type: cell-based; conditions: strain UFR52 (E. coli)
# Protocol: as §1
# [3] = tested on: E. coli UFR74 (SHV-1, DHA-1); assay: as above; type: cell-based; conditions: strain UFR74 (E. coli)
# Protocol: as §1
# [4] = tested on: P. aeruginosa UFR48 (VIM-2); assay: as above; type: cell-based; conditions: strain UFR48 (P. aeruginosa)
# Protocol: as §1
# [5] = tested on: K. pneumoniae UFR24 (TEM-1, SHV-2, SHV-11, OXA-1, OXA-48, OXA-47); assay: as above; type: cell-based; conditions: strain UFR24 (K. pneumoniae)
# Protocol: as §1
# E. coli RGN238 (OXA-1) = assay: as above; type: cell-based; conditions: strain RGN238 (E. coli)
# Protocol: as §1
# [6] = tested on: K. pneumoniae UFR77 (CMY-2); assay: as above; type: cell-based; conditions: strain UFR77 (K. pneumoniae)
# Protocol: as §1
# [7] = tested on: P. aeruginosa CIP105250 (OXA-15); assay: as above; type: cell-based; conditions: strain CIP105250 (P. aeruginosa)
# Protocol: as §1
# [8] = tested on: E. coli UFR61O (TEM-1, KPC-2); assay: as above; type: cell-based
# Protocol: as §1
# [9] = tested on: C. murliniae 210102 (VIM-4); assay: as above; type: cell-based; conditions: strain 210102 (C. murliniae)
# Protocol: as §1
# [10] = tested on: P. aeruginosa UFR35 (OXA-23); assay: as above; type: cell-based; conditions: strain UFR35 (P. aeruginosa)
# Protocol: as §1
# [11] = tested on: P. aeruginosa CIP107051 (TEM-24); assay: as above; type: cell-based; conditions: strain CIP107051 (P. aeruginosa)
# Protocol: as §1
# [12] = tested on: K. pneumoniae BAA-1898 (TEM-1, SHV-11, SHV-12, KPC-2); assay: as above; type: cell-based; conditions: strain BAA-1898 (K. pneumoniae)
# Protocol: as §1
# [13] = tested on: E. cloacae UFR38 (CTX-M-15, NDM-1); assay: as above; type: cell-based; conditions: strain UFR38 (E. cloacae)
# Protocol: as §1
# [14] = tested on: E. coli UFR32 (TEM-1, VEB-1, OXA-10); assay: as above; type: cell-based; conditions: strain UFR32 (E. coli)
# Protocol: as §1
# [15] = tested on: E. coli UFR18 (CTX-M-15, OXA-204); assay: as above; type: cell-based; conditions: strain UFR18 (E. coli)
# Protocol: as §1
# [16] = tested on: K. pneumoniae 6299 (TEM-1, SHV-11, OXA-163); assay: as above; type: cell-based; conditions: strain 6299 (K. pneumoniae)
# Protocol: as §1
# [17] = tested on: E. coli 131119 (TEM-1, OXA-48); assay: as above; type: cell-based; conditions: strain 131119 (E. coli)
# Protocol: as §1
# [18] = tested on: P. aeruginosa UFR59 (IMP-29); assay: as above; type: cell-based; conditions: strain UFR59 (P. aeruginosa)
# Protocol: as §1
# [19] = tested on: E. cloacae P99 (Derepressed ampC); assay: as above; type: cell-based; conditions: strain P99 (E. cloacae)
# Protocol: as §1
# [20] = MIC of ceftazidime with compound fixed at 4 μg/mL
# [21] = Pseudomonas aeruginosa, 18 h, read-out: MIC compounds of the invention alone
# [22] = Escherichia coli, 18 h, read-out: MIC compounds of the invention alone
# [23] = Klebsiella pneumoniae, 18 h, read-out: MIC compounds of the invention alone
# [24] = Enterobacter cloacae, 18 h, read-out: MIC compounds of the invention alone
# T1 sequence (P62593 24-286 limits assumed): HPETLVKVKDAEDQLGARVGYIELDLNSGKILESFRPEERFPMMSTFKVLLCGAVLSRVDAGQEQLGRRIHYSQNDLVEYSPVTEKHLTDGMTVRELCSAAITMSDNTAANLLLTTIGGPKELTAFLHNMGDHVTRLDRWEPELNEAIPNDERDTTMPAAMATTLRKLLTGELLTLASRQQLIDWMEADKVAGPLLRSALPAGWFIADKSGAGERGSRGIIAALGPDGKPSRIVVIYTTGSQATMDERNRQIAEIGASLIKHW
compound,measurement,setting,value
"NC[C@@H]1C=C(c2cnco2)[C@@H]2CN1C(=O)N2OS(=O)(=O)O (relative stereo) [Example 1, Sodium and 2,2,2-trifluoroacetate [trans-2-(azaniumylmethyl)-4-oxazol-5-yl-7-oxo-1,6-diazabicyclo[3.2.1]oct-3-en-6-yl] sulfate]",IC50,TEM-1,3.2 nM
same,"MIC, combination of CAZ and compounds of the invention",[1]; [20],<0.25 µg/mL
same,MIC,[1]; [21],2 µg/mL
same,MIC,[2]; [22],2 µg/mL
same,"MIC, combination of CAZ and compounds of the invention",[2]; [20],<0.25 µg/mL
same,MIC,[3]; [22],> 32 µg/mL
same,"MIC, combination of CAZ and compounds of the invention",[3]; [20],4 µg/mL
same,"MIC, combination of CAZ and compounds of the invention",[4]; [20],<0.25 µg/mL
same,MIC,[4]; [21],4 µg/mL
same,MIC,[5]; [23],> 32 µg/mL
same,"MIC, combination of CAZ and compounds of the invention",[5]; [20],4 µg/mL
same,MIC,E. coli RGN238 (OXA-1); [22],> 32 µg/mL
same,"MIC, combination of CAZ and compounds of the invention",E. coli RGN238 (OXA-1); [20],≤0.125 µg/mL
same,MIC,[6]; [23],> 32 µg/mL
same,"MIC, combination of CAZ and compounds of the invention",[6]; [20],2 µg/mL
same,"MIC, combination of CAZ and compounds of the invention",[7]; [20],≤0.125 µg/mL
same,MIC,[7]; [21],> 32 µg/mL
same,MIC,"[8]; Escherichia coli, strain UFR61O (E. coli), read-out: MIC compounds of the invention alone",0.031 µg/mL
same,"MIC, combination of CAZ and compounds of the invention","[8]; MIC of ceftazidime with compound fixed at 4 μg/mL, strain UFR610 (E. coli)",<0.25 µg/mL
same,MIC,"[9]; 18 h, read-out: MIC compounds of the invention alone",> 32 µg/mL
same,"MIC, combination of CAZ and compounds of the invention",[9]; [20],0.5 µg/mL
same,"MIC, combination of CAZ and compounds of the invention",[10]; [20],<0.25 µg/mL
same,MIC,[10]; [21],1 µg/mL
same,"MIC, combination of CAZ and compounds of the invention",[11]; [20],<0.25 µg/mL
same,MIC,[11]; [21],2 µg/mL
same,MIC,"[12]; Klebsiella pneumoniae, BAA1898, read-out: MIC compounds of the invention alone",> 32 µg/mL
same,"MIC, combination of CAZ and compounds of the invention",[12]; [20],0.5 µg/mL
same,MIC,[13]; [24],≤ 0.016 µg/mL
same,"MIC, combination of CAZ and compounds of the invention",[13]; [20],<0.25 µg/mL
same,MIC,[14]; [22],0.031 µg/mL
same,"MIC, combination of CAZ and compounds of the invention",[14]; [20],<0.25 µg/mL
same,MIC,[15]; [22],0.031 µg/mL
same,"MIC, combination of CAZ and compounds of the invention",[15]; [20],<0.25 µg/mL
same,MIC,[16]; [23],> 32 µg/mL
same,"MIC, combination of CAZ and compounds of the invention",[16]; [20],0.5 µg/mL
same,MIC,[17]; [22],32 µg/mL
same,"MIC, combination of CAZ and compounds of the invention",[17]; [20],<0.25 µg/mL
same,"MIC, combination of CAZ and compounds of the invention",[18]; [20],<0.25 µg/mL
same,MIC,[18]; [21],8 µg/mL
same,MIC,[19]; [24],0.031 µg/mL
same,"MIC, combination of CAZ and compounds of the invention",[19]; [20],<0.25 µg/mL
